Series [1] concerns HEK293. As to the kind of experiment: Cytotoxicity against OATP1B3 (-/-) HEK293 cells incubated for 48 hrs by sulforhodamine B assay. Type of series: ADME, cell-based, Homo sapiens. Background: Sulforhodamine B stains cellular protein and so reports cell mass.
The subject of series [2] is HEK293. As to the kind of experiment: Cytotoxicity against OATP1B1 (-/-) HEK293 cells incubated for 48 hrs by sulforhodamine B assay. Type of series: ADME, cell-based, Homo sapiens.
A short description of series [3]: Drug uptake in OATP1B3 (-/-) HEK293 cells at 100 nM measured up to 8 mins by fluorescence time-lapse microscopy. Type of series: ADME, cell-based. The settings on record: human, hek293, 8 min, 0.1 µM.
Series [4] can be described thus: Drug uptake in OATP1B1 (-/-) HEK293 cells at 100 nM measured up to 8 mins by fluorescence time-lapse microscopy. Type of series: ADME, cell-based. The settings on record: human, hek293, 8 min, 0.1 µM.

The structures appear in SMILES notation. Numbered stars: 1 amine (or outer) side, 2 acyl side, 3 side chain; on linkers, the order of the positions; unused ones are H or OH. Bridge positions count the residues as written; N and C are the ends. Square brackets hold non-standard residues; d marks the D form. Peptide text beside a SMILES is read from it. * marks the point of attachment. Adda = CO[C@@H](Cc1ccccc1)[C@@H](C)/C=C(C)/C=C/[C@H](N[*:1])[C@H](C)C(=O)[*:2]; dAsp(3S-Me) = C[C@H](C(=O)[*:3])[C@@H](N[*:1])C(=O)[*:2]; d(γGlu) = O=C(O)[C@@H](CCC(=O)[*:2])N[*:1]; NMeDha = C=C(NC)C(=O)O; Propargyl = C#CC*

These results are taken from ChEMBL document CHEMBL4619767, “Precursor-Directed Biosynthesis and Fluorescence Labeling of Clickable Microcystins” (J Nat Prod, 2020).

Consider `C=C1C(=O)N[C@H](C)C(=O)N[C@@H](Cc2ccc(OCc3cn(-c4cc5ccc(O)cc5oc4=O)nn3)cc2)C(=O)N[C@@H](C(=O)O)[C@H](C)C(=O)N[C@@H](CCCNC(=N)N)C(=O)N[C@@H](/C=C/C(C)=C/[C@H](C)[C@H](Cc2ccccc2)OC)[C@H](C)C(=O)N[C@@H](C(=O)O)CCC(=O)N1C`, for which the concentration for a half-maximal effect (EC50) in series [1] and in series [2] was above 2000 nM in each case. For the same compound, the Drug uptake entry in series [3] and in series [4] was “Not Active” in each case.

Turning to `C#CCOc1ccc(C[C@@H]2NC(=O)[C@@H](C)NC(=O)C(=C)N(C)C(=O)CC[C@H](C(=O)O)NC(=O)[C@@H](C)[C@H](/C=C/C(C)=C/[C@H](C)[C@H](Cc3ccccc3)OC)NC(=O)[C@H](CCCNC(=N)N)NC(=O)[C@@H](C)[C@H](C(=O)O)NC2=O)cc1` (R[Adda][d(γGlu)][NMeDha][dA]Y(Propargyl)[dAsp(3S-Me)]-OH; lactam N-7), the EC50 in series [1] and in series [2] was above 2000 nM each time.

Regarding `C=C1C(=O)N[C@H](C)C(=O)N[C@@H](Cc2ccc(O)cc2)C(=O)N[C@@H](C(=O)O)[C@H](C)C(=O)N[C@@H](CCCNC(=N)N)C(=O)N[C@@H](/C=C/C(C)=C/[C@H](C)[C@H](Cc2ccccc2)OC)[C@H](C)C(=O)N[C@@H](C(=O)O)CCC(=O)N1C` (R[Adda][d(γGlu)][NMeDha][dA]Y[dAsp(3S-Me)]-OH; lactam N-7), the EC50 in series [1] and in series [2] was above 2000 nM each time.
